The results in this text go back to patent publication US7034042B2, “N-(4-aryloxypiperidin-1-ylalkyl) cinnamic amides as CCR33 receptor antagonists” (Novartis AG, priority 2000, dated 2006).

In this test the target is T1, human CCR-3 (Homo sapiens, UniProt P51677).
T1 construct: expressed in transfected cells; membranes
T1 sequence (P51677 1-355): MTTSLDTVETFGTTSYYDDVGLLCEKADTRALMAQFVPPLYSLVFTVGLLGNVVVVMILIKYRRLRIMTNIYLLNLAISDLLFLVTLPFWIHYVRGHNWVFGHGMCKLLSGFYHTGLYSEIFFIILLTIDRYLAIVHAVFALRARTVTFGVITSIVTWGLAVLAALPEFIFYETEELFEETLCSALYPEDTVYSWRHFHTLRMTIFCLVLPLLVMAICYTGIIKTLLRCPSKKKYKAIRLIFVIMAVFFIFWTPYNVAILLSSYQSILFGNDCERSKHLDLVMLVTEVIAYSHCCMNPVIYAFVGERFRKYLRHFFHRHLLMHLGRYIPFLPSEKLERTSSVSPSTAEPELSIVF
Description: CCR-3 Binding Assay (inhibition of [125I]-human eotaxin binding, SPA). Particulars: binding of [125I]-human eotaxin to membranes of RBL-2H3 cells stably expressing CCR3; 4 hours at room temperature. How it is done: In this assay the effect of agents of the invention on the binding of human eotaxin to human CCR-3 is determined. Recombinant cells expressing human CCR-3 are captured by wheatgerm agglutinin (WGA) polyvinyltoluidene (PVT) SPA beads (available from Amersham), through a specific interaction between the WGA and carbohydrate residues of glycoproteins on the surface of the cells. [^125I]-human eotaxin (available from Amersham) binds specifically to CCR-3 receptors bringing the [^125I]-human eotaxin in close proximity to the SPA beads. Emitted â-particles from the [^125I]-human eotaxin excite, by its proximity, the fluorophore in the beads and produce light.
Preparation of Assay Buffer: 5.96 g HEPES and 7.0 g sodium chloride are dissolved in distilled water and 1M aqueous CaCl2 (1 mL) and 1M aqueous MgCl2 (5 mL) are added. The pH is adjusted to 7.6 with NaOH and the solution made to a final volume of 1 L using distilled water. 5 g bovine serum albumin and 0.1 g sodium azide are then dissolved in the solution and the resulting buffer stored at 4° C. A Complete™ protease inhibitor cocktail tablet (available from Boehringer) is added per 50 mL of the buffer on the day of use.
Preparation of Homogenisation Buffer: Tris-base (2.42 g) is dissolved in distilled water, the pH of the solution is adjusted to 7.6 with hydrochloric acid and the solution is diluted with distilled water to a final volume of 1 L. The resulting buffer is stored at 4° C. A Complete™ protease inhibitor cocktail tablet is added per 50 mL of the buffer on the day of use.
Preparation of membranes: Confluent rat basophil leukemia (RBL-2H3) cells stably expressing CCR3 are removed from tissue culture flasks using enzyme-free cell dissociation buffer and resuspended in phosphate-buffered saline. […]
The assay is performed in a final volume of 250 μL per well of an Optiplate (ex Canberra Packard). […] The resulting scintillations are counted using a Canberra Packard TopCount, each well being counted for 1 minute. […]
The molecule `COc1ccc(C#N)cc1/C=C/C(=O)NC(CO)CN1CCC(Oc2ccc(F)cc2)CC1` (stereo not drawn) [Example 1, (E)-3-(5-Cyano-2-methoxy-phenyl)-N-{2-[4-(4-fluoro-phenoxy)-piperidin-1-yl]-1-hydroxymethyl-ethyl}-acrylamide] returned an IC50 of 16 nM.

`COc1ccc(C#N)cc1/C=C/C(=O)N[C@H](CC(=O)N(C)CCO)CN1CCC(Oc2ccc(F)cc2)CC1` [Example 14, (E)-3-(5-Cyano-2-methoxy-phenyl)-N-((R)-2-[4-(4-fluoro-phenoxy)-piperidin-1-yl]-1-{[(2-hydroxy-ethyl)-methyl-carbamoyl]-methyl}-ethyl)-acrylamide] gave an IC50 of 11 nM.

`COc1ccc(C#N)cc1/C=C/C(=O)N[C@H](CNC(C)=O)CN1CCC(Oc2ccc(F)cc2)CC1` [Example 16, (E)-N-{(R)-1-(Acetylamino-methyl)-2-[4-(4-fluoro-phenoxy)-piperidin-1-yl]-ethyl}-3-(5-cyano-2-methoxy-phenyl)-acrylamide] had an IC50 of 2.8 nM.

What is called IC50 is the concentration needed to halve the response being measured. A low value points to inhibition by little substance.
